Laboratory results taken from patent publication US9963467B2, “Boronic acid derivatives and therapeutic uses thereof” (Rempex Pharmaceuticals, Inc., priority 2014, dated 2018).

Assays:
ec302 (TEM-10) [1] = experiment: Aztreonam potentiation (MPC@4), ec302; assay type: cell-based; conditions: BLI with aztreonam at 4 μg/mL
KP1005 (CTX-M-14) [2] = experiment: Tigemonam potentiation (MPC@4), KP1005; assay type: cell-based; conditions: BLI with tigemonam at 4 μg/mL
ec308 (SHV-5) [3] = experiment: Tigemonam potentiation (MPC@4), ec308; assay type: cell-based
EC1010 (CMY-6) [4] = experiment: Tigemonam potentiation (MPC@4), EC1010; assay type: cell-based; conditions: BLI with tigemonam at 4 μg/mL
PAM1032/KPC-2 = experiment: Biapenem potentiation MPC64, PAM1032/KPC-2 (efflux proficient); assay type: cell-based, Pseudomonas aeruginosa; conditions: BLI to decrease MIC of biapenem 64-fold; MexAB-OprM overexpressed
Procedure: Efflux of BLIs from Pseudomonas aeruginosa by the MexAB-OprM efflux pump was also evaluated. […] Due to expression of KPC-2 both strains became resistant to biapenem. […] Potency of BLIs to potentiate biapenem in these strains was determined. […] The ratio of MPC64 values for each BLI in PAM1032/KPC-2 (efflux proficient) and PAM1154/KPC-2 (efflux deficient) was determined to generate the Efflux Index (EI).

Pa AmpC = Pa AmpC (Pseudomonas aeruginosa, UniProt P24735); experiment: Ki, nitrocefin cleavage by purified enzyme, Pa AmpC; assay type: biochemical; conditions: nitrocefin reporter substrate; read-out: Ki (Pa AmpC, NCF)
Pa AmpC, sequence (P24735 27-397): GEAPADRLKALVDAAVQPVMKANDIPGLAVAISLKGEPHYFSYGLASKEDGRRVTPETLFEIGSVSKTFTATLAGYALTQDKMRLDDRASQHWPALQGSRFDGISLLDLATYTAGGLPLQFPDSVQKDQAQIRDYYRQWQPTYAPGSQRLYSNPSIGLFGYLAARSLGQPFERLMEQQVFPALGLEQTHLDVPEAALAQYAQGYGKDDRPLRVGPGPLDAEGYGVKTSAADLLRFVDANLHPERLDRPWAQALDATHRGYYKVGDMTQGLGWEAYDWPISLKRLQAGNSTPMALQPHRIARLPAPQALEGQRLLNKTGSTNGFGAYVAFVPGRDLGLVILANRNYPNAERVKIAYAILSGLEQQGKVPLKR
In short: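 Purified β-lactamases preincubated 10 min at room temperature with varying inhibitor concentrations in reaction buffer. Nitrocefin then added as reporter substrate; cleavage followed at 490 nm every 10 sec for 10 min to derive Ki.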

ec302 (TEM-10) [5] = experiment: Tigemonam potentiation (MPC@4), ec302; assay type: cell-based
P99 = P99 (Enterobacter cloacae, UniProt P05364); experiment: Ki, nitrocefin cleavage by purified enzyme, P99; assay type: biochemical; conditions: nitrocefin reporter substrate; read-out: Ki (P99, NCF)
P99, sequence (P05364 21-381): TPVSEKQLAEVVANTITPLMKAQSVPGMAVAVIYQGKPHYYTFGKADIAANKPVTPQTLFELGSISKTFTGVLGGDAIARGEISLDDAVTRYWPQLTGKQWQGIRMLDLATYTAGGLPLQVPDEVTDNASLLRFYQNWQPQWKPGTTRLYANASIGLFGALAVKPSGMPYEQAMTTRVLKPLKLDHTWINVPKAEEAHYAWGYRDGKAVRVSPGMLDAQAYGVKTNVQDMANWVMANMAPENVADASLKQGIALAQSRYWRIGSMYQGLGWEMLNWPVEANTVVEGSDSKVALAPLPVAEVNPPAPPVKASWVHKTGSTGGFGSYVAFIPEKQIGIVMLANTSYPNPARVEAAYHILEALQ
In short: (§1)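 Purified enzyme was preincubated with a range of inhibitor concentrations in reaction buffer for 10 min at room temperature. Nitrocefin was then added and its cleavage followed at 490 nm every 10 sec for 10 min.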

KP1004 (KPC-2) [6] = experiment: Biapenem potentiation (MPC@1), KP1004; conditions: BLI with biapenem at 1 μg/mL
KP1086 (OXA-48) = experiment: Biapenem potentiation (MPC@1), KP1086; conditions: BLI with biapenem at 1 μg/mL
KP1010 (SHV-12) [7] = experiment: Tigemonam potentiation (MPC@4), KP1010; assay type: cell-based
ECL1002 [8] = experiment: Aztreonam potentiation (MPC@4), ECL1002; assay type: cell-based; conditions: BLI with aztreonam at 4 μg/mL
ec308 (SHV-5) [9] = experiment: Aztreonam potentiation (MPC@4), ec308; assay type: cell-based; conditions: BLI with aztreonam at 4 μg/mL
ECL1002 [10] = experiment: Tigemonam potentiation (MPC@4), ECL1002; assay type: cell-based; conditions: BLI with tigemonam at 4 μg/mL
KP1010 (SHV-12) [11] = experiment: Aztreonam potentiation (MPC@4), KP1010; assay type: cell-based
KP1009 (CTX-M-15) [12] = experiment: Tigemonam potentiation (MPC@4), KP1009; assay type: cell-based; conditions: BLI with tigemonam at 4 μg/mL
KP1005 (CTX-M-14) [13] = experiment: Aztreonam potentiation (MPC@4), KP1005; assay type: cell-based; conditions: BLI with aztreonam at 4 μg/mL
EC1010 (CMY-6) [14] = experiment: organism not typed; assay type: cell-based
OXA-48 = OXA-48 (Klebsiella pneumoniae, UniProt Q6XEC0); experiment: Ki, nitrocefin cleavage by purified enzyme, OXA-48; assay type: biochemical; conditions: nitrocefin reporter substrate; read-out: Ki (OXA-48, NCF)
OXA-48, sequence (Q6XEC0 23-265, looked up, species assumed): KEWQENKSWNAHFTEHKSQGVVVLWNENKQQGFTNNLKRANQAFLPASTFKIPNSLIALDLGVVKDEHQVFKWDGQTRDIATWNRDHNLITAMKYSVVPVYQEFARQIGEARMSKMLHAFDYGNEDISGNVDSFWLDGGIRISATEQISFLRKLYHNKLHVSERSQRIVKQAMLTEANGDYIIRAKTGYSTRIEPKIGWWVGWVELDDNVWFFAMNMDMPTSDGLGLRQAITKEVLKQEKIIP
In short: as §1

KP1004 (KPC-2) [15] = experiment: Aztreonam potentiation (MPC@4), KP1004; assay type: cell-based; conditions: BLI with aztreonam at 4 μg/mL
CTX-M-14 = CTX-M-14 (Escherichia coli, UniProt Q9L5C7); experiment: Ki, nitrocefin cleavage by purified enzyme, CTX-M-14; assay type: biochemical; conditions: nitrocefin reporter substrate; read-out: Ki (CTX-M-14, NCF)
CTX-M-14, sequence (Q9L5C7 29-291): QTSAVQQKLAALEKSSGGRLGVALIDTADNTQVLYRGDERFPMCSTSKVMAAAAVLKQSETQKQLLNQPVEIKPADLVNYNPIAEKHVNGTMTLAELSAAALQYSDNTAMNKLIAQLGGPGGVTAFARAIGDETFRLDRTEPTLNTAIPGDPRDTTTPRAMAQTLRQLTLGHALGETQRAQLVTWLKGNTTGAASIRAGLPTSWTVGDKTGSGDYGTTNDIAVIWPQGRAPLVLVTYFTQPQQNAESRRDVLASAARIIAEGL
In short: as §1

SHV-12 = SHV-12 (Klebsiella pneumoniae, UniProt P0AD64, E235K/G234S/L31Q); experiment: Ki, nitrocefin cleavage by purified enzyme, SHV-12; assay type: biochemical; conditions: nitrocefin reporter substrate; read-out: Ki (SHV-12, NCF)
SHV-12, sequence (P0AD64 22-286 L31Q/G234S/E235K): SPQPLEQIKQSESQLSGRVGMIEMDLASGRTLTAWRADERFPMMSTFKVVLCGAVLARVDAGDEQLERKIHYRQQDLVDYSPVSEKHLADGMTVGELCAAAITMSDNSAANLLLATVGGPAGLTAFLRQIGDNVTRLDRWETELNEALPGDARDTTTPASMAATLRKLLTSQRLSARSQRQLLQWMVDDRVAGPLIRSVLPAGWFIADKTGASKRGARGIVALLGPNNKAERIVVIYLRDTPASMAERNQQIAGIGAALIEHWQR
In short: as §1

KPC-2 = KPC-2 (Klebsiella pneumoniae, UniProt Q9F663); experiment: Ki, nitrocefin cleavage by purified enzyme, KPC-2; assay type: biochemical; conditions: nitrocefin reporter substrate; read-out: Ki (KPC-2, NCF)
KPC-2, sequence (Q9F663 25-293, looked up, species assumed): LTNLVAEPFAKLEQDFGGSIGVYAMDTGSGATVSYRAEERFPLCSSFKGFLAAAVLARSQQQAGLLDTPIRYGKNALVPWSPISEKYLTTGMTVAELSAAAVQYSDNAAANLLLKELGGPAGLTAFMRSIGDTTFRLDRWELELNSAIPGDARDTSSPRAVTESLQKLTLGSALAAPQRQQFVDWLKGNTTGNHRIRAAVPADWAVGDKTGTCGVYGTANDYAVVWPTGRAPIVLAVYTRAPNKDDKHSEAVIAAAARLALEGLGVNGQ
In short: as §1

KP1009 (CTX-M-15) [16] = experiment: organism not typed; assay type: cell-based

Row | SMILES | AZT MPC4 TEM-10 ec302 (ec302 (TEM-10) [1]) | TIG MPC4 CTX-M-14 KP1005 (KP1005 (CTX-M-14) [2]) | TIG MPC4 SHV-5 ec308 (ec308 (SHV-5) [3]) | TIG MPC4 CMY-6 EC1010 (EC1010 (CMY-6) [4]) | PAM1032/KPC-2 Biapenem MPC64 (PAM1032/KPC-2) | Ki (Pa AmpC) [nM] | TIG MPC4 TEM-10 ec302 (ec302 (TEM-10) [5]) | Ki (P99) [nM] | BPM MPC1 KP1004 KPC-2 (KP1004 (KPC-2) [6]) | BPM MPC1 OXA-48 KP1086 (KP1086 (OXA-48)) | TIG MPC4 SHV-12 KP1010 (KP1010 (SHV-12) [7]) | AZT MPC4 ECL1002 (ECL1002 [8]) | AZT MPC4 SHV-5 ec308 (ec308 (SHV-5) [9]) | TIG MPC4 ECL1002 (ECL1002 [10]) | AZT MPC4 SHV-12 KP1010 (KP1010 (SHV-12) [11]) | TIG MPC4 CTX-M-15 KP1009 (KP1009 (CTX-M-15) [12]) | AZT MPC4 CTX-M-14 KP1005 (KP1005 (CTX-M-14) [13]) | AZT MPC4 CMY-6 EC1010 (EC1010 (CMY-6) [14]) | Ki (OXA-48) [nM] | Ki (CTX-M-14) [nM] | further results
1 | O=C(CSC1CNC1)N[C@H]1Cc2cccc(C(=O)O)c2OB1O [B, reference compound] | Y (MIC of 1 μg/mL to 10 μg/mL) | Y (MIC of 1 μg/mL to 10 μg/mL) | Y (key: X: MIC of less than 1 ng/mL; Y: MIC of 1 μg/mL to 10 μg/mL; Z: MIC of greater than 10 μg/mL) | X (MIC of less than 1 μg/mL) | 2.5 | 1 to 10 | Z (key: X: MIC of less than 1 ng/mL; Y: MIC of 1 μg/mL to 10 μg/mL; Z: MIC of greater than 10 μg/mL) |  |  |  |  |  |  |  |  |  |  |  |  |  | 
2 | O=C(CSC(F)F)N[C@H]1Cc2cccc(C(=O)O)c2OB1O [C, reference compound] |  | X (MIC of less than 1 μg/mL) | X (key: X: MIC of less than 1 μg/mL; Y: MIC of 1 μg/mL to 10 μg/mL; Z: MIC of greater than 10 μg/mL) |  | 80 | < 1 | Y (key: X: MIC of less than 1 ng/mL; Y: MIC of 1 μg/mL to 10 μg/mL; Z: MIC of greater than 10 μg/mL) | 1 to 10 | X (MIC of less than 1 μg/mL) | Y (MIC of 1 μg/mL to 10 μg/mL) | X (key: X: MIC of less than 1 μg/mL; Y: MIC of 1 μg/mL to 10 μg/mL; Z: MIC of greater than 10 μg/mL) | Y (MIC of 1 μg/mL to 10 μg/mL) | X (MIC of less than 1 ng/mL) | Y (MIC of 1 μg/mL to 10 μg/mL) | X (key: X: MIC of less than 1 ng/mL; Y: MIC of 1 μg/mL to 10 μg/mL; Z: MIC of greater than 10 μg/mL) | X (MIC of less than 1 μg/mL) | X (MIC of less than 1 ng/mL) | X (key: X: MIC of less than 1 ng/mL; Y: MIC of 1 μg/mL to 10 μg/mL; Z: MIC of greater than 10 μg/mL) |  |  | 
3 | O=C(O)CC(=O)N[C@H]1Cc2cccc(C(=O)O)c2OB1O [D, reference compound] | Z (MIC of greater than 10 μg/mL) | Z (MIC of greater than 10 μg/mL) | Y (key: X: MIC of less than 1 ng/mL; Y: MIC of 1 μg/mL to 10 μg/mL; Z: MIC of greater than 10 μg/mL) | X (MIC of less than 1 μg/mL) |  | > 10 | Z (key: X: MIC of less than 1 ng/mL; Y: MIC of 1 μg/mL to 10 μg/mL; Z: MIC of greater than 10 μg/mL) | > 10 | X (MIC of less than 1 μg/mL) | Y (MIC of 1 μg/mL to 10 μg/mL) | Y (key: X: MIC of less than 1 ng/mL; Y: MIC of 1 μg/mL to 10 μg/mL; Z: MIC of greater than 10 μg/mL) | Y (MIC of 1 μg/mL to 10 μg/mL) | Y (MIC of 1 μg/mL to 10 μg/mL) | X (MIC of less than 1 μg/mL) | Y (key: X: MIC of less than 1 ng/mL; Y: MIC of 1 μg/mL to 10 μg/mL; Z: MIC of greater than 10 μg/mL) | Y (MIC of 1 μg/mL to 10 μg/mL) | Y (MIC of 1 μg/mL to 10 μg/mL) |  | < 1 | < 1 | AZT MPC4 KPC-2 KP1004 (KP1004 (KPC-2) [15]): Y (MIC of 1 μg/mL to 10 μg/mL); Ki (SHV-12): 1 to 10 nM; Ki (KPC-2): > 10 nM; AZT MPC4 CTX-M-15 KP1009 (KP1009 (CTX-M-15) [16]): Y (key: X: MIC of less than 1 ng/mL; Y: MIC of 1 μg/mL to 10 μg/mL; Z: MIC of greater than 10 μg/mL)
4 | NC(=O)CC(=O)N[C@H]1Cc2cccc(C(=O)O)c2OB1O [E, reference compound] |  | Y (MIC of 1 μg/mL to 10 μg/mL) | Y (key: X: MIC of less than 1 ng/mL; Y: MIC of 1 μg/mL to 10 μg/mL; Z: MIC of greater than 10 μg/mL) |  |  |  | Z (key: X: MIC of less than 1 ng/mL; Y: MIC of 1 μg/mL to 10 μg/mL; Z: MIC of greater than 10 μg/mL) |  | X (MIC of less than 1 μg/mL) | Y (MIC of 1 μg/mL to 10 μg/mL) | X (key: X: MIC of less than 1 μg/mL; Y: MIC of 1 μg/mL to 10 μg/mL; Z: MIC of greater than 10 μg/mL) | X (MIC of less than 1 ng/mL) | X (MIC of less than 1 ng/mL) | X (MIC of less than 1 μg/mL) | X (key: X: MIC of less than 1 ng/mL; Y: MIC of 1 μg/mL to 10 μg/mL; Z: MIC of greater than 10 μg/mL) | Y (MIC of 1 μg/mL to 10 μg/mL) | X (MIC of less than 1 ng/mL) | X (key: X: MIC of less than 1 ng/mL; Y: MIC of 1 μg/mL to 10 μg/mL; Z: MIC of greater than 10 μg/mL) | < 1 | < 1 | AZT MPC4 CTX-M-15 KP1009 (KP1009 (CTX-M-15) [16]): X (key: X: MIC of less than 1 ng/mL; Y: MIC of 1 μg/mL to 10 μg/mL; Z: MIC of greater than 10 μg/mL)
5 | CNC(=O)CC(=O)N[C@H]1Cc2cccc(C(=O)O)c2OB1O [G, reference compound] | Y (MIC of 1 μg/mL to 10 μg/mL) | Y (MIC of 1 μg/mL to 10 μg/mL) | Y (key: X: MIC of less than 1 ng/mL; Y: MIC of 1 μg/mL to 10 μg/mL; Z: MIC of greater than 10 μg/mL) | X (MIC of less than 1 μg/mL) | 40 |  | Z (key: X: MIC of less than 1 ng/mL; Y: MIC of 1 μg/mL to 10 μg/mL; Z: MIC of greater than 10 μg/mL) |  |  |  |  |  |  |  |  |  | Y (MIC of 1 μg/mL to 10 μg/mL) |  |  | < 1 | 
6 | Nc1nnc(C(=O)N[C@H]2Cc3cccc(C(=O)O)c3OB2O)s1 [H, reference compound] | X (MIC of less than 1 ng/mL) | Y (MIC of 1 μg/mL to 10 μg/mL) | X (key: X: MIC of less than 1 μg/mL; Y: MIC of 1 μg/mL to 10 μg/mL; Z: MIC of greater than 10 μg/mL) |  | 80 | < 1 | Y (key: X: MIC of less than 1 ng/mL; Y: MIC of 1 μg/mL to 10 μg/mL; Z: MIC of greater than 10 μg/mL) |  | X (MIC of less than 1 μg/mL) | Y (MIC of 1 μg/mL to 10 μg/mL) | X (key: X: MIC of less than 1 μg/mL; Y: MIC of 1 μg/mL to 10 μg/mL; Z: MIC of greater than 10 μg/mL) |  | X (MIC of less than 1 ng/mL) | X (MIC of less than 1 μg/mL) | X (key: X: MIC of less than 1 ng/mL; Y: MIC of 1 μg/mL to 10 μg/mL; Z: MIC of greater than 10 μg/mL) | X (MIC of less than 1 μg/mL) | Y (MIC of 1 μg/mL to 10 μg/mL) | X (key: X: MIC of less than 1 ng/mL; Y: MIC of 1 μg/mL to 10 μg/mL; Z: MIC of greater than 10 μg/mL) |  |  | 
